Source: the kinase profiling compilation of Christmann-Franck et al. (2016)

How the values were obtained:
Experiment in all cases: radiometric filter-binding kinase assay
[1] = target: BTK (human) (UniProt Q06187)
[2] = target: RPS6KA5 KD1 KD2 (human) (UniProt O75582)
[3] = target: MAP3K1 (human) (UniProt Q13233)
[4] = target: DYRK2 (human) (UniProt Q92630)
[5] = target: IKBKE (human) (UniProt Q14164)
[6] = target: PIM3 (human) (UniProt Q86V86)
[7] = target: AURKA (human) (UniProt O14965)
[8] = target: DYRK3 (human) (UniProt O43781)
[9] = target: PRKACA (human) (UniProt P17612)
[10] = target: EEF2K (human) (UniProt O00418)
[11] = target: MAP3K7 TAB1 (human) (UniProt Q15750+O43318)
[12] = target: SYK (human) (UniProt P43405)
[13] = target: MARK2 (human) (UniProt Q7KZI7)
[14] = target: SRC (human) (UniProt P12931)
[15] = target: MYLK (human) (UniProt Q15746)
[16] = target: BRSK2 (human) (UniProt Q8IWQ3)
[17] = target: FGFR1 (human) (UniProt P11362)
[18] = target: MAPK9 (human) (UniProt P45984)
[19] = target: MAPKAPK3 (human) (UniProt Q16644)
[20] = target: EPHB3 (human) (UniProt P54753)
[21] = target: MAPK14 (human) (UniProt Q16539)
[22] = target: CSK (human) (UniProt P41240)
[23] = test system: SGK1 (human), O00141 [S422D]
[24] = target: MAP3K11 (human) (UniProt Q16584)
[25] = target: YES1 (human) (UniProt P07947)
[26] = target: GSK3B (human) (UniProt P49841)
[27] = target: INSRR (human) (UniProt P14616)
[28] = target: CDK2 CCNA2 (human) (UniProt P20248+P24941)
[29] = test system: LCK (mouse); settings: accession and sequence are those of the human protein
[30] = target: AURKB (human) (UniProt Q96GD4)
[31] = test system: ROCK2 (rat); settings: accession and sequence are those of the human protein
[32] = target: DAPK1 (human) (UniProt P53355)
[33] = target: MAP3K9 (human) (UniProt P80192)
MAP3K9 (human), sequence (P80192 whole entry, looked up): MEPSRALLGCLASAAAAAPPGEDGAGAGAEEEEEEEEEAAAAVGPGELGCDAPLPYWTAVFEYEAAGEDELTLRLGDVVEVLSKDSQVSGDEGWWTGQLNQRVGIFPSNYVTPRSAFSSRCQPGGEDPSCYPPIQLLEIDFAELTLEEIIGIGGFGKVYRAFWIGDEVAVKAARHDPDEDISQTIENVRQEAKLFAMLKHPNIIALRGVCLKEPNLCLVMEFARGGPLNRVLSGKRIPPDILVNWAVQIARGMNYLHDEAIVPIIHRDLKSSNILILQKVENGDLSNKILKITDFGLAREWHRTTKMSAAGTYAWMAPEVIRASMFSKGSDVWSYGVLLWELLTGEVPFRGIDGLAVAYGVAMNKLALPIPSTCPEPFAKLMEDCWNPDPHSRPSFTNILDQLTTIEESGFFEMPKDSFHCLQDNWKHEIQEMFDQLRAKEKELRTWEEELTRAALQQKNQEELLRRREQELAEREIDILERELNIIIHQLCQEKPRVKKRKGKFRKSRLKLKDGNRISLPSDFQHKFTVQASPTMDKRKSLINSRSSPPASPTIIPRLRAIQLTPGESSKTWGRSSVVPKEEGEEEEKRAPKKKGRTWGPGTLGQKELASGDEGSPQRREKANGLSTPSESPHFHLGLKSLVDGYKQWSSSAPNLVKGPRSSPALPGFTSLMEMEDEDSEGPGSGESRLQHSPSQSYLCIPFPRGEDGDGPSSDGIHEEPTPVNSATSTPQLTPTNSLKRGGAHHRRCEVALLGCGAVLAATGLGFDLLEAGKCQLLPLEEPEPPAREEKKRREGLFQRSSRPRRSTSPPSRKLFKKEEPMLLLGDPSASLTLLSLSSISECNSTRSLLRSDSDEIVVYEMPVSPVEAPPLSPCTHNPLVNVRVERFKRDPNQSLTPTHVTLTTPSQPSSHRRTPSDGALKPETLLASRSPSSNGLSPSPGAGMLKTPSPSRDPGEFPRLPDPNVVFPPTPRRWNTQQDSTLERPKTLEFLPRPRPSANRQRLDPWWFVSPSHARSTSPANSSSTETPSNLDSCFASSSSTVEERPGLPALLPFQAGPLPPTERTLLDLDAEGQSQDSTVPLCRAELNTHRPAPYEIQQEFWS

AURKB (human), sequence (Q96GD4 whole entry, looked up): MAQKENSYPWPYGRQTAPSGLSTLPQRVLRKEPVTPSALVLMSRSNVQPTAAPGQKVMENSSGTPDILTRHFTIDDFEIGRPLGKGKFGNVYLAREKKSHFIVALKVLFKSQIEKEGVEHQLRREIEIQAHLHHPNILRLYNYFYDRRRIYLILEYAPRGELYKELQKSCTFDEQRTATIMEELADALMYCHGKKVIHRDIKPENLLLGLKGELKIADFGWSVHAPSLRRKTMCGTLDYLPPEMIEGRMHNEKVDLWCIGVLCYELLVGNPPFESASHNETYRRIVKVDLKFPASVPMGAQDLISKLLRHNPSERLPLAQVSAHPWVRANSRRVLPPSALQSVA
AURKA (human), sequence (O14965 whole entry, looked up): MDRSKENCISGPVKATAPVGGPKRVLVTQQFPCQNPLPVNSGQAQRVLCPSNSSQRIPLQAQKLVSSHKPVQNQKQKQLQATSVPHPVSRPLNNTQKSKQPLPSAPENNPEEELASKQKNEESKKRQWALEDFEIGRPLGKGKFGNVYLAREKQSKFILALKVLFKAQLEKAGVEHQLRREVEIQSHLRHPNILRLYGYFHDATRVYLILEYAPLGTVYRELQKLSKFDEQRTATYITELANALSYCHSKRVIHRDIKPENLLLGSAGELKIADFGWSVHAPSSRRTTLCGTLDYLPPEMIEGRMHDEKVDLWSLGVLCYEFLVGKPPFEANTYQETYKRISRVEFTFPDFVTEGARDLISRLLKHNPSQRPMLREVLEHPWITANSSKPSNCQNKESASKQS
MYLK (human), sequence (Q15746 whole entry, looked up): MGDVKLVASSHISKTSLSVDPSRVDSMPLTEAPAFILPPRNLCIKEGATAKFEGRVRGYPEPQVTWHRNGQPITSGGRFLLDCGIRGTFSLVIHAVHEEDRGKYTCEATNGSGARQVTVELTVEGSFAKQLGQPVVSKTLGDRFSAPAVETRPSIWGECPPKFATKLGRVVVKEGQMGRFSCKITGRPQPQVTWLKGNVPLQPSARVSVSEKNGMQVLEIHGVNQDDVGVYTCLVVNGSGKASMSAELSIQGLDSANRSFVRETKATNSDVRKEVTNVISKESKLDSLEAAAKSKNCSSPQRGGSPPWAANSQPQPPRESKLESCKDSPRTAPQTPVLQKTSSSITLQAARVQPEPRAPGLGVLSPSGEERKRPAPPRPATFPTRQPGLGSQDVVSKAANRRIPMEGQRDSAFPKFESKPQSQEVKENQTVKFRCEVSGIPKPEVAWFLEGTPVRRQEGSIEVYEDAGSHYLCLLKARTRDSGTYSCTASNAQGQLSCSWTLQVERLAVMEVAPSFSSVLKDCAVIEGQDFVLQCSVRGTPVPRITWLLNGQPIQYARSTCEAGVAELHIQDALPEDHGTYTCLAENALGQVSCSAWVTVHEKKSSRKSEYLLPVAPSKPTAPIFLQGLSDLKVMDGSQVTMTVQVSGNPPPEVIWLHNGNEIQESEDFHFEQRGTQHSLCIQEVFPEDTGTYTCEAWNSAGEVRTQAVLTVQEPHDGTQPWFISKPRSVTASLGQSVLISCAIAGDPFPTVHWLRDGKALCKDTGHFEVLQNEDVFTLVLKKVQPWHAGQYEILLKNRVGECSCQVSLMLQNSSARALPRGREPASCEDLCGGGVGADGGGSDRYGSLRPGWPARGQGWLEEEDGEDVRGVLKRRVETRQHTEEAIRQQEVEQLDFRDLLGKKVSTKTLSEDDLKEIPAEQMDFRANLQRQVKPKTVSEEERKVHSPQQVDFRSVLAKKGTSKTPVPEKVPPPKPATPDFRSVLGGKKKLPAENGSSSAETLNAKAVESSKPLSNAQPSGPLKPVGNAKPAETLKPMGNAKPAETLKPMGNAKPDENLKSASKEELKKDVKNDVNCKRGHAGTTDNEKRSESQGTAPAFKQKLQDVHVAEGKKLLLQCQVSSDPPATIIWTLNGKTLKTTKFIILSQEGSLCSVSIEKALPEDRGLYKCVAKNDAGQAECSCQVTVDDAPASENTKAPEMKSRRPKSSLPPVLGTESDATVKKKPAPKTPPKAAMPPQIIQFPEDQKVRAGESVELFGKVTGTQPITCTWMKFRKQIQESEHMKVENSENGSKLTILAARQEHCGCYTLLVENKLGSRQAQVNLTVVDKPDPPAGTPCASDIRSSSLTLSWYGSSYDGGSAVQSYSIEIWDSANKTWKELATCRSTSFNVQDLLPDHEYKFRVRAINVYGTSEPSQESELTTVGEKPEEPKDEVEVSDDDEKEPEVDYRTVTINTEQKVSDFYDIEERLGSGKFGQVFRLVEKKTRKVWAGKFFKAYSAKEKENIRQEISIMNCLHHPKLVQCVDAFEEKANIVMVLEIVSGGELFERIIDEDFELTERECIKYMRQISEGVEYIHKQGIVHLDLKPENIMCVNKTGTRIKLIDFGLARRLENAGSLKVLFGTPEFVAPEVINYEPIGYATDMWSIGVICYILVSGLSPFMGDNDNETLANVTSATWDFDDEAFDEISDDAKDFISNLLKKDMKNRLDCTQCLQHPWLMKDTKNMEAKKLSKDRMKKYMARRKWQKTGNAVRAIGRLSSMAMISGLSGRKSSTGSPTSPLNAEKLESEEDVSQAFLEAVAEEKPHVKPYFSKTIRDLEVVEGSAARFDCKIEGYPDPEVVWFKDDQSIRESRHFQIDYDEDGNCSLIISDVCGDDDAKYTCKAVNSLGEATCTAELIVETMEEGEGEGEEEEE
MARK2 (human), sequence (Q7KZI7 whole entry, looked up): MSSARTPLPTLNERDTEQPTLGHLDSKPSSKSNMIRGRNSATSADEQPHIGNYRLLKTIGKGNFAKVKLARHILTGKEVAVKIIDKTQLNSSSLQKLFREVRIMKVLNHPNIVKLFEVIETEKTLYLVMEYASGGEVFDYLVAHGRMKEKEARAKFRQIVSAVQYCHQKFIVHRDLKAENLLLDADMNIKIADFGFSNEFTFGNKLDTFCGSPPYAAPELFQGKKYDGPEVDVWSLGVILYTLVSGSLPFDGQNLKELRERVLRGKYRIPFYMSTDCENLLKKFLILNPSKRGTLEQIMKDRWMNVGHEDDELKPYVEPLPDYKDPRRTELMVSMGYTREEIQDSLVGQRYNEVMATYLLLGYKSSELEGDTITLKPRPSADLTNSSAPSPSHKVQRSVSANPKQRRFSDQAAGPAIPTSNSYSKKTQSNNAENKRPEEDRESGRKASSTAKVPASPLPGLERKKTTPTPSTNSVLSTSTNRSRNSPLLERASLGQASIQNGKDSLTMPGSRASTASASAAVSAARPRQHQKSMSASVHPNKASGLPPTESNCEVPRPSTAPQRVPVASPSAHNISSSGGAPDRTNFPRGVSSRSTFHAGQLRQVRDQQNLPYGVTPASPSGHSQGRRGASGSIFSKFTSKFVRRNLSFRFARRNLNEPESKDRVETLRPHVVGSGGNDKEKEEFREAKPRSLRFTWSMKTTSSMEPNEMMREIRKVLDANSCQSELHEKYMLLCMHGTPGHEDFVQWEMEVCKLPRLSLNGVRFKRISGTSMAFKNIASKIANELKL
CSK (human), sequence (P41240 whole entry, looked up): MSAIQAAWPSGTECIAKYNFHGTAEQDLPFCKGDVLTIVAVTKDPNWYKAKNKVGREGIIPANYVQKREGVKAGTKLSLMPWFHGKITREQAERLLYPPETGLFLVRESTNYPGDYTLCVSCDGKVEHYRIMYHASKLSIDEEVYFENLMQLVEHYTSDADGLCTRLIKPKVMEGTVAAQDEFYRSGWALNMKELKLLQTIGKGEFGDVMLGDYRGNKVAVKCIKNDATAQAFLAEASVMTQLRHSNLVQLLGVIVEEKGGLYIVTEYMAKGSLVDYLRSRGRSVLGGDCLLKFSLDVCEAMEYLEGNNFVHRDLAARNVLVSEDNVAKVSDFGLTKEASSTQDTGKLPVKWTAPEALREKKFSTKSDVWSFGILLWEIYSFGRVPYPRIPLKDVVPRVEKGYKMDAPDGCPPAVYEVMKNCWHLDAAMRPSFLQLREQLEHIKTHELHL

**Q.** With COc1cc(C(=O)N2CCC(N3CCN(C)CC3)CC2)ccc1Nc1ncc2c(n1)N(C)c1ccccc1C(=O)N2C as the compound, how does the residual activity ([1]; compound 1.0 µM) read?
**A.** 95%

**Q.** And the residual activity ([1]; compound 10.0 µM)?
**A.** 75%

**Q.** What about the residual activity ([2]; compound 1.0 µM) of the same compound?
**A.** 79%

**Q.** And the residual activity ([2]; compound 10.0 µM)?
**A.** 84%

**Q.** What about the residual activity ([3]; compound 1.0 µM) of the same compound?
**A.** 87%

**Q.** And the residual activity ([3]; compound 10.0 µM)?
**A.** 83%

**Q.** And the residual activity ([4]; compound 1.0 µM)?
**A.** 90%

**Q.** What about the residual activity ([4]; compound 10.0 µM) of the same compound?
**A.** 98%

**Q.** What about the residual activity ([5]; compound 1.0 µM) of the same compound?
**A.** 76%

**Q.** What about the residual activity ([5]; compound 10.0 µM) of the same compound?
**A.** 88%

**Q.** And the residual activity ([6]; compound 1.0 µM)?
**A.** 97%

**Q.** What about the residual activity ([6]; compound 10.0 µM) of the same compound?
**A.** 76%

**Q.** What about the IC50 [7] of the same compound?
**A.** 1200 nM

**Q.** And the residual activity ([7]; compound 1.0 µM)?
**A.** 33%

**Q.** And the residual activity ([7]; compound 10.0 µM)?
**A.** 5%

**Q.** What about the residual activity ([8]; compound 1.0 µM) of the same compound?
**A.** 95%

**Q.** What about the residual activity ([8]; compound 10.0 µM) of the same compound?
**A.** 96%

**Q.** What about the residual activity ([9]; compound 1.0 µM) of the same compound?
**A.** 79%

**Q.** What about the residual activity ([9]; compound 10.0 µM) of the same compound?
**A.** 93%

**Q.** What about the residual activity ([10]; compound 1.0 µM) of the same compound?
**A.** 75%

**Q.** What about the residual activity ([10]; compound 10.0 µM) of the same compound?
**A.** 82%

**Q.** What about the residual activity ([11]; compound 1.0 µM) of the same compound?
**A.** 85%

**Q.** And the residual activity ([11]; compound 10.0 µM)?
**A.** 82%

**Q.** And the residual activity ([12]; compound 1.0 µM)?
**A.** 71%

**Q.** What about the residual activity ([12]; compound 10.0 µM) of the same compound?
**A.** 63%

**Q.** What about the residual activity ([13]; compound 1.0 µM) of the same compound?
**A.** 62%

**Q.** And the residual activity ([13]; compound 10.0 µM)?
**A.** 72%

**Q.** And the residual activity ([14]; compound 1.0 µM)?
**A.** 99%

**Q.** What about the residual activity ([14]; compound 10.0 µM) of the same compound?
**A.** 99%

**Q.** What about the IC50 [15] of the same compound?
**A.** 12200 nM

**Q.** What about the residual activity ([15]; compound 1.0 µM) of the same compound?
**A.** 76%

**Q.** And the residual activity ([15]; compound 10.0 µM)?
**A.** 25%

**Q.** And the residual activity ([16]; compound 1.0 µM)?
**A.** 89%

**Q.** What about the residual activity ([16]; compound 10.0 µM) of the same compound?
**A.** 87%

**Q.** What about the residual activity ([17]; compound 1.0 µM) of the same compound?
**A.** 83%

**Q.** What about the residual activity ([17]; compound 10.0 µM) of the same compound?
**A.** 60%

**Q.** And the residual activity ([18]; compound 1.0 µM)?
**A.** 79%

**Q.** What about the residual activity ([18]; compound 10.0 µM) of the same compound?
**A.** 98%

**Q.** What about the residual activity ([19]; compound 1.0 µM) of the same compound?
**A.** 85%

**Q.** What about the residual activity ([19]; compound 10.0 µM) of the same compound?
**A.** 89%

**Q.** And the residual activity ([20]; compound 1.0 µM)?
**A.** 71%

**Q.** What about the residual activity ([20]; compound 10.0 µM) of the same compound?
**A.** 71%

**Q.** And the residual activity ([21]; compound 1.0 µM)?
**A.** 95%

**Q.** What about the residual activity ([21]; compound 10.0 µM) of the same compound?
**A.** 96%

**Q.** And the residual activity ([22]; compound 1.0 µM)?
**A.** 70%

**Q.** And the residual activity ([22]; compound 10.0 µM)?
**A.** 80%

**Q.** And the residual activity ([23]; compound 1.0 µM)?
**A.** 75%

**Q.** And the residual activity ([23]; compound 10.0 µM)?
**A.** 89%

**Q.** And the residual activity ([24]; compound 1.0 µM)?
**A.** 94%

**Q.** What about the residual activity ([24]; compound 10.0 µM) of the same compound?
**A.** 84%

**Q.** And the residual activity ([25]; compound 1.0 µM)?
**A.** 86%

**Q.** And the residual activity ([25]; compound 10.0 µM)?
**A.** 82%

**Q.** And the residual activity ([26]; compound 1.0 µM)?
**A.** 90%

**Q.** And the residual activity ([26]; compound 10.0 µM)?
**A.** 95%

**Q.** What about the residual activity ([27]; compound 1.0 µM) of the same compound?
**A.** 80%

**Q.** And the residual activity ([27]; compound 10.0 µM)?
**A.** 91%

**Q.** And the residual activity ([28]; compound 1.0 µM)?
**A.** 84%

**Q.** What about the residual activity ([28]; compound 10.0 µM) of the same compound?
**A.** 79%

**Q.** What about the residual activity ([29]; compound 1.0 µM) of the same compound?
**A.** 106%

**Q.** And the residual activity ([29]; compound 10.0 µM)?
**A.** 99%

**Q.** And the IC50 [30]?
**A.** 1100 nM

**Q.** And the residual activity ([30]; compound 1.0 µM)?
**A.** 64%

**Q.** What about the residual activity ([30]; compound 10.0 µM) of the same compound?
**A.** 28%

**Q.** What about the residual activity ([31]; compound 1.0 µM) of the same compound?
**A.** 84%

**Q.** And the residual activity ([31]; compound 10.0 µM)?
**A.** 84%

**Q.** And the residual activity ([32]; compound 1.0 µM)?
**A.** 85%

**Q.** And the residual activity ([32]; compound 10.0 µM)?
**A.** 77%

**Q.** And the residual activity ([33]; compound 1.0 µM)?
**A.** 87%

**Q.** What about the residual activity ([33]; compound 10.0 µM) of the same compound?
**A.** 96%
